These results are taken from patent US20050119284A1, “ANTIVIRAL AGENTS AND METHODS OF USE” (priority 2003, published 2005).

Data set [1] relates to bovine viral diarrhea virus (BVDV). Put plainly: BVDV plaque assay in MDBK cells. The conditions noted are these: for Pfu/microL Avg: average of three; for Pfu/microL: individual replicates; for Antiviral effect on BVDV in the presence of thymidine (in words): 1 mM thymidine, cytotoxicity blocked; for Effect on viral yield: MDBK cells with BVDV, without thymidine; for Antiviral effect on BVDV replication (in words): increasing concentrations; for Decrease in BVDV replication / viral titers: in the presence of 1 mM thymidine. It counts as cell-based.

Data set [2] deals with MDBK cells. Nature of the data set: Host cell growth / cytotoxicity, mock-infected MDBK cells counted by flow cytometry. The conditions noted are these: for Decrease in cell growth: confluent MDBK cells, concentrations used for the AZA/MPA comparison; for Cellular cytotoxicity / cell viability at antiviral concentrations: MDBK cells, concentrations assayed.
The subject of data set [3] is MDBK cells.
In data set [4] the test system is HCV 1 bN replicon. The conditions noted are these: two recent studies; cited from earlier work.
Data set [5] has as its system HCV 1 bN replicon. The conditions noted are these: 100 uM, 1 mM thymidine, 72 hours, Huh7.
The conditions of data set [6]: given to mice; cited from earlier work.

Values joined by “and” are separate entries in the source; they are usually repeats but may differ in a detail not shown here. Equal entries are not always repeated. “Also recorded” adds a separate entry of the source.

For `CC(=O)/C=C/Sc1ncnc2[nH]cnc12` [trans-AVTP, trans-6-(2-acetylvinylthio) purine], in data set [1] (10 uM), the “Antiviral activity compared between isomers” value is given as “less antiviral than cis-AVTP”. Also, in data set [1] (10 microM), the “Pfu/microL Avg” value is 65.67 Pfu/microL; the Pfu/microL was 53 Pfu/microL and 73 Pfu/microL and 71 Pfu/microL. In data set [1] (100 microM), the “Pfu/microL Avg” value is reported as 0.33 Pfu/microL; the Pfu/microL was 0.32 Pfu/microL and 0.38 Pfu/microL and 0.29 Pfu/microL.
For `COc1c(C)c2c(c(O)c1C/C=C(\C)CCC(=O)O)C(=O)OC2` [MPA, mycophenolate], the “Decrease in cell growth” value in the data set with MDBK cells [2] is recorded as about 50%. The “Effect on cell growth” value in the data set on MDBK cells [3] is listed as “killed all the cells”.
`NC(=O)c1ncn([C@@H]2O[C@H](CO)[C@@H](O)[C@H]2O)n1` [ribavirin]: in the data set on HCV 1 bN replicon [4], the “Antiviral (Hepatitis GB) or anti-HCV replicon activity” value is “weak”.
On to `Nc1nc2nc[nH]c2c(=S)[nH]1` [6-thioguanine], for which, in data set [1], the “Antiviral effect on BVDV in the presence of thymidine (in words)” value (shortened to “Antiviral effect on BVDV in the presence”) is “did not”, the “Effect on viral yield” value is “decreased” and the “Decrease in BVDV replication / viral titers” value was “did not”. The “Antiviral effect on BVDV replication (in words)” value in data set [1] (MDBK cells) is “no antiviral affect”. Further, in the data set on MDBK cells [3], the “Effect on cell growth” value is on record as “decreased” and the “Effect on cell growth in the presence of thymidine” value was “neither azathioprine metabolite had an appreciable effect”.
With `Cn1cnc([N+](=O)[O-])c1Sc1ncnc2nc[nH]c12` [AZA, azathioprine], in data set [1], the “Antiviral effect on BVDV in the presence” value is “the majority of the antiviral effect was maintained; also recorded: still occurred” and the “Decrease in BVDV replication / viral titers” value was “two”. The “Inhibition of viral replication relative to inhibition of cell growth” value in data set [1] (MDBK cells, increasing AZA, 72 hours) is 10-100 fold. For the same molecule, the “Antiviral effect on BVDV replication (in words)” value in data set [1] (MDBK cells) is on record as “sensitive; also recorded: specifically inhibited”. Further, the “Decrease of BVDV replication relative to MPA” value in data set [1] (at doses that achieved similar cytoxicity) was determined as 10 fold. In data set [1] (confluent MDBK cells, concentrations causing similar decrease in cell growth), the “Virus produced per living cell, compared to cells grown in MPA” value was determined as 12%. In addition, the “Amount of BVDV virus generated, AZA versus MPA” value in data set [1] (confluent MDBK cells, doses allowing similar cellular growth, 72 hours) is on record as “significantly less”. Moreover, the “Decrease in cell growth” value with MDBK cells [2] was about 50%. Further, in the data set on HCV 1 bN replicon [5], the “Amount of replicon compared to no drug” value is listed as about 50% and the “Increase in number of cycles to reach critical threshold (Ct) compared to no drug” value was about 1 cycle.
As for `OC[C@H]1O[C@@H](n2cnc3c(S)ncnc32)[C@H](O)[C@@H]1O` [6TI, 6 thioinosine], the “Antiviral properties relative to 6MP” value in data set [1] (BVDV replication, FIG. 11) was 2-3 fold.
For the molecule `CC(=O)/C=C\Sc1ncnc2[nH]cnc12` [cis-AVTP, cis-6-(2-acetylvinylthio) purine], the “Antiviral effect on BVDV in the presence” value in data set [1] is given as “still occurs”. Besides, the “Pfu/microL Avg” value in data set [1] (10 microM) is 2 Pfu/microL; in data set [1] (100 microM), 0.35 Pfu/microL. The Pfu/microL in data set [1] (10 microM, listed as cis) is 1.4 Pfu/microL and 2.5 Pfu/microL and 2.1 Pfu/microL; in data set [1] (100 microM, listed as cis), 0.34 Pfu/microL and 0.35 Pfu/microL and 0.36 Pfu/microL. The “Antiviral effect on BVDV replication (in words)” value is reported as “sensitive; also recorded: significant anti-viral activity” in data set [1] (MDBK cells) and “able to inhibit” in data set [1] (MDBK cells, listed as cisAVTP). Moreover, in data set [6], the “Levels of 6MP in the liver and gastrointestinal tract” value is “high levels”. Further, the Side effects result in data set [6] is “no significant side effects”. Moreover, the “Cellular cytotoxicity / cell viability at antiviral concentrations” value is “without cellular cytoxicity” with MDBK cells [2] and “did not affect overall cell viability” in the data set with MDBK cells [2] (listed as cisAVTP).
Turning to `Sc1ncnc2nc[nH]c12` [6-mercaptopurine], in data set [1], the “Antiviral effect on BVDV in the presence” value was “significantly reduced; also recorded: still possessed this antiviral effect”, the “Effect on viral yield” value is listed as “decreased” and the “Decrease in BVDV replication / viral titers” value was found to be 2 log. Besides, the “Antiviral effect on BVDV replication (in words)” value in data set [1] (MDBK cells, listed as 6MP) is on record as “sensitive; also recorded: specifically inhibited”. For the same molecule, in the data set with MDBK cells [3], the “Effect on cell growth” value is given as “decreased” and the “Effect on cell growth in the presence of thymidine” value is “neither azathioprine metabolite had an appreciable effect”.
For the molecule `CSc1ncnc2nc[nH]c12` [6-methyl mercaptopurine], the “Effect on viral yield” value in data set [1] is on record as “no effect”. In addition, the “Effect on cell growth” value in the data set on MDBK cells [3] is “no effect”.
